Data as given in patent US20160215348A1, “GENE EXPRESSION BIOMARKERS AND THEIR USE FOR DIAGNOSTIC AND PROGNOSTIC APPLICATION IN PATIENTS POTENTIALLY IN NEED OF HDAC INHIBITOR TREATMENT” (4SC AG, priority 2013, published 2016).

How the values were obtained:
18S = experiment: Gene expression in HT29 cancer cells (in vitro); type: cell-based, human; conditions: standardized to 0 h
Method: (§1) Hatched columns relate to blood, black columns relate to HepG2 cells, white boxes relate to HT 29 cells. Values are standardized to the value at 0 h.
(§2) Samples were obtained and gene expressions were determined with the methods as described herein below. The results are shown in below table 3 and FIGS. 2 and 3
(§3) The above values represent a mean value which was determined on the basis of 2 biological replicates, for each of which 3 technical replicates were prepared. […] The level of gene expression determined in peripheral blood samples can be correlated with a certain level of activity of HDAC in the diseased cells, e.g. by applying an appropriate conversion factor or conversion table, which may be determined for each specific disease, and/or patient group.
(§4) To determine RNA expression levels of ZFP64 in different cancer cell lines and PBMC, the cell membranes were chemically disrupted with a buffer containing guanidine isothiocycanate, which lyses the cells and supports the binding of RNA to a silica membrane and RNA was extracted via a filter-based spin column.
(§5) The High-Capacity cDNA Reverse Transcription Kit (Applied Biosystems) was used for reverse transcription of total RNA into single stranded cDNA with the aid of random hexamer primers according to the manufacturer's instructions. Briefly, for the reaction mix total RNA was mixed with random primers in excess, 4 mM dNTP Mix, 2.5 U/reaction, reverse transcriptase and nuclease free water. The reverse transcription took place in a thermal cycler under the following conditions: 25° C. for 10 min, 37° C. for 120 min, 85° C. for 5 min, followed by 4° C. for cooling down the reaction. The reverse transcription can be done in principle as well with other reverse transcriptases, primers and temperature protocols. Whenever possible, 250 ng total RNA were reverse transcribed if not available, lower amounts were used.
(§6) Custom TaqMan® Arrays (Applied Biosystems) in Format 16 were designed for the gene expression analysis of biomarkers of the present invention and housekeeping genes as outlined in table 4. These arrays allow for qPCR analysis of 8 samples per card. Of course, all reactions can be done as well by conventional qPCR analysis with specific primers.

CCDC43 = experiment: Gene expression in HT29 cancer cells (in vitro); type: cell-based, human; conditions: standardized to 0 h
Method: as §1, §2, §3, §4, §5, §6

DPP3 = experiment: Gene expression in HT29 cancer cells (in vitro); type: cell-based, human; conditions: standardized to 0 h
Method: as §1, §2, §3, §4, §5, §6

GAPDH = experiment: Gene expression in HT29 cancer cells (in vitro); type: cell-based, human; conditions: standardized to 0 h
Method: as §1, §2, §3, §4, §5, §6

HIST2H4A/B = experiment: Gene expression in HT29 cancer cells (in vitro); type: cell-based, human; conditions: standardized to 0 h
Method: as §1, §2, §3, §4, §5, §6

KDELC2 = experiment: Gene expression in HT29 cancer cells (in vitro); type: cell-based, human; conditions: standardized to 0 h
Method: as §1, §2, §3, §4, §5, §6

MICALL1 = experiment: Gene expression in HT29 cancer cells (in vitro); type: cell-based, human; conditions: standardized to 0 h
Method: as §1, §2, §3, §4, §5, §6

TBP = experiment: Gene expression in HT29 cancer cells (in vitro); type: cell-based, human; conditions: standardized to 0 h
Method: as §1, §2, §3, §4, §5, §6

ZFP64 [1] = experiment: Gene expression in HT29 cancer cells (in vitro); type: cell-based, human; conditions: standardized to 0 h
Method: as §1, §2, §3, §4, §5, §6

ZFP64 [2] = experiment: Nuclear protein extraction and Western blot, HepG2 cells; type: cell-based, human; conditions: 5 μM, 24 h, vs 0.1% DMSO
Method: (§7) After isolating nuclear fractions, ZFP64 protein levels were detected by Western Blot analysis. Histone H3 serves as nuclear loading control.
(§8) 4 h upon seeding, HepG2 cells were treated with either 0.1% DMSO or 5 μM resminostat.
(§9) 24 h upon resminostat treatment, cells were washed once with PBS before scraping and harvesting in cold PBS and transferring the cells into pre-chilled 15 ml falcon tubes. […]
(§10) From each nuclear sample 4.4 μg protein (measured via BCA protein assay) were added to the same amount of Tricine buffer (supplemented with B-Mercaptoethanol), heated at 95° C. for 5 min and then placed on ice. […]
(§11) The next day, after washing four times with Washing Buffer, membranes were incubated for 1 h with the corresponding horseradish peroxidase-conjugated anti-rabbit IgG secondary antibody at a dilution of 1/50.000 and anti-Biotin at a dilution of 1/1.000 (diluted in 10 ml 1/10 diluted SuperBlock T20 Blocking Buffer). After washing four times with Washing Buffer, HRP signals were detected using enhanced chemoluminescence and exposed to X-ray films. Subsequently, the films were scanned using the Gel Doc 2000 and the corresponding signals were quantified with the “Quantity One” Software (BioRad).

Histone H3 = experiment: Nuclear protein extraction and Western blot, HepG2 cells (nuclear loading control); type: cell-based, human; conditions: 5 μM, 24 h, vs 0.1% DMSO
Method: as §7, §8, §9, §10, §11

ZFP64 [3] = experiment: ZFP64 gene expression in diverse cancer cell lines (FIG. 4c); type: cell-based; conditions: 10 μM; 0, 2, 5 and 24 hours
Description: as §4

Which results are given for CN(C)Cc1ccc(S(=O)(=O)n2ccc(/C=C/C(=O)NO)c2)cc1 [resminostat, (E)-3-(1-(4-((dimethylamino)methyl)phenylsulfonyl)-1H-pyrrol-3-yl)-N-hydroxyacrylamide]?
Expression level, 18s (housekeeping gene) (18S; 2 h): 0.94; Expression level, 18s (housekeeping gene) (18S; 5 h): 0.91; Expression level, CCDC43 (CCDC43; 2 h): 0.82; Expression level, CCDC43 (CCDC43; 5 h): 0.53; Expression level, DPP3 (DPP3; 2 h): 0.87; Expression level, DPP3 (DPP3; 5 h): 0.72; Expression level, GAPDH (housekeeping gene) (GAPDH; 2 h): 0.93; Expression level, GAPDH (housekeeping gene) (GAPDH; 5 h): 0.97; Expression level, HIST2H4A/B (HIST2H4A/B; 2 h): 0.96; Expression level, HIST2H4A/B (HIST2H4A/B; 5 h): 0.88; Expression level, KDELC2 (KDELC2; 2 h): 0.79; Expression level, KDELC2 (KDELC2; 5 h): 0.35; Expression level, MICALL1 (MICALL1; 2 h): 0.81; Expression level, MICALL1 (MICALL1; 5 h): 0.42; Expression level, TBP (housekeeping gene) (TBP; 2 h): 1.15; Expression level, TBP (housekeeping gene) (TBP; 5 h): 1.13; Expression level, ZFP64 (ZFP64 [1]; 2 h): 0.58; Expression level, ZFP64 (ZFP64 [1]; 5 h): 0.25; ZFP64 nuclear protein levels (Western Blot) (ZFP64 [2]): diminished; Histone H3 levels (nuclear loading control) (Histone H3): essentially unaltered; ZFP64 expression in several cancer cell lines (FIG. 4c) (ZFP64 [3]): down-regulating effect
